{
  "source": "the supplement of paper PMC11208160",
  "data": [
    {"test": "recombinant UMI read abundance after kanamycin selection (control-corrected) (log10(CPM+1)); higher = more efficient recombination; extreme values may be limits of the assay; sequences stand for … in AGTGCAGAGAAAATCGGCCAGTTTTCTCTGCCTGCAGTCCGCATGCCGTGGGACCCCTTGGGTTCTAACCTGTTGCCTAGATTTATGCAGCGGACTGCCTTTCTCCCAAAGTGATAAACCGG…AGGTTGGTTTCACT; site = the 11-nt donor", "outline": "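In Escherichia coli, a pool of donor and donor-binding-loop pairs, each with a 12-nt UMI, was tested for the IS621 bridge recombinase. Plating was on IPTG (0.07 mM) plus kanamycin, or without selection, in two replicates. Recombinant UMIs were amplified by PCR across the donor–target junction and sequenced, and counts were reported as log10(CPM+1) after averaging and control-derived scaling.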", "values": [
      {"sequence": "TCAGAGTCATGGACCGGTTTTCCCGGTAATCCGTATTTGCG (site TCAGAGCCTCG)", "recombinant UMI read abundance (log10)": 0.625},
      {"sequence": "TCAGAGTCATGGACCGGTTTTCCCGGTAATCCGTATTTGCG (site TCAGAGGCTCG)", "recombinant UMI read abundance (log10)": 0.0319},
      {"sequence": "TCAGAGTCATGGACCGGTTTTCCCGGTAATCCGTATTTGCG (site TCAGAGTCTCG)", "recombinant UMI read abundance (log10)": 3},
      {"sequence": "TCAGTACCATGGACCGGTTTTCCCGGTAATCCGTATTTGTG (site TCAGTACCTCA)", "recombinant UMI read abundance (log10)": 0.023},
      {"sequence": "TCAGTAGCATGGACCGGTTTTCCCGGTAATCCGTATTTGAT (site TCAGTAGCTAT)", "recombinant UMI read abundance (log10)": 2.12},
      {"sequence": "TCAGTATCATGGACCGGTTTTCCCGGTAATCCGTATTTGCG (site ACAGTATCTTG)", "recombinant UMI read abundance (log10)": 0},
      {"sequence": "TCAGTATCATGGACCGGTTTTCCCGGTAATCCGTATTTGCG (site TCAGTATCTCG)", "recombinant UMI read abundance (log10)": 1.85},
      {"sequence": "TCAGTCCCATGGACCGGTTTTCCCGGTAATCCGTATTTGGT (site TCAGTCCCTAC)", "recombinant UMI read abundance (log10)": 0},
      {"sequence": "TCATAGACATGGACCGGTTTTCCCGGTAATCCGTATTTGCG (site TCAAAGACTCG)", "recombinant UMI read abundance (log10)": 0.629},
      {"sequence": "TCATAGACATGGACCGGTTTTCCCGGTAATCCGTATTTGCG (site TCACAGACTCG)", "recombinant UMI read abundance (log10)": 0.285},
      {"sequence": "TCATAGACATGGACCGGTTTTCCCGGTAATCCGTATTTGCG (site TCAGAGACTCG)", "recombinant UMI read abundance (log10)": 0.00296},
      {"sequence": "TCATAGACATGGACCGGTTTTCCCGGTAATCCGTATTTGCG (site TCATAGACTCG)", "recombinant UMI read abundance (log10)": 1.87},
      {"sequence": "TCATAGACATGGACCGGTTTTCCCGGTAATCCGTATTTGGA (site TCATAGACTTC)", "recombinant UMI read abundance (log10)": 0.712},
      {"sequence": "TCATCAGCATGGACCGGTTTTCCCGGTAATCCGTATTTGAT (site TCATCAGCTAT)", "recombinant UMI read abundance (log10)": 0.316},
      {"sequence": "TCATCTCCATGGACCGGTTTTCCCGGTAATCCGTATTTGTC (site TCATCTCCTGA)", "recombinant UMI read abundance (log10)": 0},
      {"sequence": "TCATGATCATGGACCGGTTTTCCCGGTAATCCGTATTTGCC (site TCATGATCTGG)", "recombinant UMI read abundance (log10)": 0.807},
      {"sequence": "TCATGATCATGGACCGGTTTTCCCGGTAATCCGTATTTGGA (site TCATGATCTTC)", "recombinant UMI read abundance (log10)": 1.32},
      {"sequence": "TCCAACCCATGGACCGGTTTTCCCGGTAATCCGTATTTGCC (site TCCAACCCTGG)", "recombinant UMI read abundance (log10)": 0},
      {"sequence": "TCCAACGCATGGACCGGTTTTCCCGGTAATCCGTATTTGAT (site TCCAACGCTAT)", "recombinant UMI read abundance (log10)": 0},
      {"sequence": "TCCACACCATGGACCGGTTTTCCCGGTAATCCGTATTTGAG (site TCCACACCTCT)", "recombinant UMI read abundance (log10)": 0.0221},
      {"sequence": "TCCACAGCATGGACCGGTTTTCCCGGTAATCCGTATTTGCG (site TCCACAGCTCG)", "recombinant UMI read abundance (log10)": 0},
      {"sequence": "TCCACAGCATGGACCGGTTTTCCCGGTAATCCGTATTTGCG (site TCCACCGCTCG)", "recombinant UMI read abundance (log10)": 0.00793},
      {"sequence": "TCCACAGCATGGACCGGTTTTCCCGGTAATCCGTATTTGCG (site TCCACGGCTCG)", "recombinant UMI read abundance (log10)": 0.0203},
      {"sequence": "TCCACAGCATGGACCGGTTTTCCCGGTAATCCGTATTTGCG (site TCCACTGCTCG)", "recombinant UMI read abundance (log10)": 0.0252},
      {"sequence": "TCCACCCCATGGACCGGTTTTCCCGGTAATCCGTATTTGCG (site TCCACCACTCG)", "recombinant UMI read abundance (log10)": 0.00655},
      {"sequence": "TCCACCCCATGGACCGGTTTTCCCGGTAATCCGTATTTGCG (site TCCACCCCTCG)", "recombinant UMI read abundance (log10)": 0.0148},
      {"sequence": "TCCACCCCATGGACCGGTTTTCCCGGTAATCCGTATTTGCG (site TCCACCGCTCG)", "recombinant UMI read abundance (log10)": 0.0184},
      {"sequence": "TCCACCCCATGGACCGGTTTTCCCGGTAATCCGTATTTGCG (site TCCACCTCTCG)", "recombinant UMI read abundance (log10)": 0.00748},
      {"sequence": "TCCACCGCATGGACCGGTTTTCCCGGTAATCCGTATTTGAG (site TCCACCGCTCA)", "recombinant UMI read abundance (log10)": 0.0207},
      {"sequence": "TCCACCGCATGGACCGGTTTTCCCGGTAATCCGTATTTGAG (site TCCACCGCTCC)", "recombinant UMI read abundance (log10)": 0.0231},
      {"sequence": "TCCACCGCATGGACCGGTTTTCCCGGTAATCCGTATTTGAG (site TCCACCGCTCG)", "recombinant UMI read abundance (log10)": 0.0211},
      {"sequence": "TCCACCGCATGGACCGGTTTTCCCGGTAATCCGTATTTGAG (site TCCACCGCTCT)", "recombinant UMI read abundance (log10)": 0.0235},
      {"sequence": "TCCACCGCATGGACCGGTTTTCCCGGTAATCCGTATTTGCA (site TCCACCGCTAG)", "recombinant UMI read abundance (log10)": 0.00852},
      {"sequence": "TCCACCGCATGGACCGGTTTTCCCGGTAATCCGTATTTGCA (site TCCACCGCTCG)", "recombinant UMI read abundance (log10)": 0}
    ]}
  ]
}
